This note sets out measurements from article PMC5458211, “Mitochondrial VDAC1-based peptides: Attacking oncogenic properties in glioblastoma” (Oncotarget, 2017).

The subject of assay [1] is mice bearing U-87MG intracranial xenografts. The assay is described as follows: Survival (Kaplan-Meier) in U-87MG intracranial xenograft. It is filed as in vivo, human U-87MG in nude mice. To be noted: 10 mg/kg i.v., treatment ended day 46 post-inoculation. As to the method: B. U-87MG cells (2×10^5) were incubated for 12 h with the indicated concentrations of DMSO, Retro-Tf-D-LP4 peptide (Pep), or Retro-Tf-D-LP4 encapsulated in PLGA nanoparticles (PLGA-Pep). Samples of Retro-Tf-D-LP4 encapsulated in PLGA nanoparticles were centrifuged (15000g, 5 min) to separate the supernatant (Sup), containing free peptide, and the pellet, containing encapsulated Retro-Tf-D-LP4 peptide. Cell death was analyzed by PI staining and FACS analysis. C. Graphical representation of the orthotopic animal experiment. D. MRI imaging of brains 29 days post-intravenal treatment start with DMSO (1.05%), Retro-Tf-D-LP4 (10 mg/kg) encapsulated in PLGA nanoparticles or Tf-D-Retro-LP4 peptide (10 mg/Kg), as described in Materials and Methods available online in Supplemental information. E. Calculated tumor volumes after 20 (dark grey bars) and 29 (light grey bars) days post-treatment start. Results = mean ± SE (n = 6) (* p<0.05, *** p<0.001). F. Kaplan-Meier survival curves showing statistically significant differences in survival curves between the PBS/DMSO and Retro-Tf-D-LP4 treated mice. […]
For the intracranial-orthotopic xenograft mouse model, U-87MG cells (8×10^4) were engrafted into a nude mouse brain using a stereotactic device. […] Tumor volume was analyzed using VivoQuant 2.10 software.
In general terms: A xenograft is tissue or cells of one species grown in another, often human tumour cells in immunodeficient mice.

Assay [2] has as its system U-87MG sub-cutaneous xenograft tumors. The assay is described as follows: Sub-cutaneous U-87MG xenograft, tumor growth. It counts as in vivo, human U-87MG in nude mice. To be noted: s.c. U-87MG xenograft, 20 μM intra-tumoral every two days, end point, n=5. As to the method: Figure 3 VDAC1-based peptides inhibit tumor growth, cell proliferation, and invasion in a glioblastoma xenograft mice model A. Graphical representation of the xenograft experiment protocol used. U-87MG cells (3×10^6/mouse) were inoculated into male nude mice as described in Materials and Methods available online in Supplemental information. B, C. […] The calculated average tumor volumes are presented as means ± SE (n=5) (* p≤0.05, ** p≤0.01). C. The volume of peptide-treated tumors is presented as % of control for each indicated time. Results = mean ± SE (n=5) (* p≤0.05, ** […]). […] E. Quantitative analysis of Ki-67 positive cells. Results = mean ± SE (n=5) (*** p<0.001). […]
U-87MG glioblastoma cells (3 x10^6) were inoculated s.c. into the hind leg flanks of athymic eight-week old male nude mice (Envigo). Thirteen days post-inoculation, tumor volume was measured (100-130 mm^3) and mice were randomized into three groups (5 animals/group), treated with PBS containing 0.26% DMSO or peptide in PBS, 0.26% DMSO/20 μM every second day. […]
(Calbiochem, UK). […] Thirteen days post-inoculation, using various primary antibodies (sources and dilutions tumor volume was measured and calculated (100-130 as detailed in supplementary Table 2), followed by mm3) and mice were randomized into three groups (5 the appropriate HRP-conjugated secondary antibodies mice/group). […]

Each structure is given as a SMILES string. Non-standard residues stand in square brackets, D forms with d. Residues, ends and D or L forms follow the SMILES beside them.

On to `CC[C@H](C)[C@H](NC(=O)[C@H](Cc1ccc(O)cc1)NC(=O)[C@@H]1CCCN1C(=O)[C@H](CCCNC(=N)N)NC(=O)[C@H](Cc1c[nH]cn1)NC(=O)[C@H](CO)NC(=O)[C@H](Cc1c[nH]c2ccccc12)NC(=O)[C@@H](NC(=O)[C@H](Cc1c[nH]c2ccccc12)NC(=O)[C@H](CCC(=O)O)NC(=O)[C@@H](CCCCN)NC(=O)[C@@H](CCCCN)NC(=O)[C@@H](CC(C)C)NC(=O)[C@@H](CCC(=O)O)NC(=O)[C@H](NC(=O)[C@@H](C)NC(=O)[C@H](NC(=O)[C@@H](CC(N)=O)NC(=O)[C@@H](CC(C)C)NC(=O)[C@@H](C)NC(=O)[C@@H](Cc1c[nH]c2ccccc12)NC(=O)[C@H](NC(=O)[C@@H](C)NC(=O)CNC(=O)[C@@H](CC(N)=O)NC(=O)[C@@H](CO)NC(=O)[C@@H](CC(N)=O)NC(=O)[C@H](CCCCN)NC(=O)[C@H](Cc1c[nH]c2ccccc12)NC(=O)[C@@H](NC(=O)[C@H](Cc1c[nH]c2ccccc12)NC(=O)[C@@H](N)CCCCN)[C@@H](C)O)[C@H](C)O)C(C)C)[C@H](C)O)[C@@H](C)O)C(=O)N[C@@H](C)C(=O)N[C@@H](Cc1c[nH]cn1)C(=O)O` [Retro-Tf-D-LP4], for which the “prolongation of survival relative to untreated mice” value in assay [1] is recorded as “over 60 days”. The “mice with prolonged survival” value in assay [1] (followed another 46 days, untreated all died by day 32) turned out to be 40%.
`CC[C@@H](C)[C@@H](NC(=O)[C@@H](CCCCN)NC(=O)[C@H](NC(=O)[C@@H](CCC(N)=O)NC(=O)[C@@H](CCCNC(=N)N)NC(=O)[C@@H](CC(C)C)NC(=O)CNC(=O)[C@@H](Cc1ccccc1)NC(=O)CNC(=O)[C@@H](Cc1ccc(O)cc1)NC(=O)CNC(=O)[C@@H](CCCCN)NC(=O)[C@H](NC(=O)[C@@H](Cc1ccccc1)NC(=O)[C@H](NC(=O)[C@@H](CC(=O)O)NC(=O)[C@H](N)CCCNC(=N)N)C(C)C)[C@H](C)O)[C@H](C)CC)C(=O)N[C@H](Cc1c[nH]c2ccccc12)C(=O)N[C@H](Cc1ccccc1)C(=O)N[C@H](CCC(N)=O)C(=O)N[C@H](CC(N)=O)C(=O)N[C@H](CCCNC(=N)N)C(=O)N[C@H](CCCNC(=N)N)C(=O)N[C@H](CCSC)C(=O)N[C@H](CCCCN)C(=O)N[C@H](Cc1c[nH]c2ccccc12)C(=O)N[C@H](CCCCN)C(=O)N[C@H](CCCCN)C(=O)O` [D-ΔN-Ter-Antp] (H-[dR][dD][dV][dF][dT][dK]G[dY]G[dF]G[dL][dR][dQ][dI][dK][dI][dW][dF][dQ][dN][dR][dR][dM][dK][dW][dK][dK]-OH; N-terminus and C-terminus assumed): the “lower average tumor volume relative to PBS/DMSO” value in assay [2] is “about 75%”.
